Test results reported in paper PMC10746543, “Design principles for cyclin K molecular glue degraders” (Nature Chemical Biology, 2023).
“And” between values parts separate entries of the source, which are not always exact repeats. Equal entries are not always repeated. Where two headings read alike, the source gives them in different places.

Key:
[1] = tested on: cyclin K–eGFP degradation reporter; experiment: Cyclin K reporter stability analysis (dual-color cyclin K–eGFP reporter); assay type: cell-based, human; conditions: source data sheet correlations; read-out: DC50
Summary of the method: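 A 5 h treatment of HEK293T–Cas9 cells expressing the degradation reporter preceded flow cytometry; eGFP over mCherry, normalized to DMSO.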

[2] = biological target: CDK12–cyclin K (Homo sapiens, UniProt Q9NYV4); experiment: Lanthascreen kinase binding assay, CDK12; conditions: for IC50: Supplementary Table 2, read-out: Lanthascreen IC50 [nM] CDK12; for Lanthascreen raw signal, sheet CDK12: series r1, duplicates
Experimental: (§1) Lanthascreen experiments were performed using commercially available reagents (Thermo Fisher) and according to the manufacturer’s instructions.

[3] = biological target: T1, CDK12–cyclin K and DDB1 (Homo sapiens, UniProt Q16531+Q9NYV4, K965R); experiment: TR-FRET ternary complex formation assay (compound titration); assay type: binding
T1 construct: His6–CDK12 (a.a. 713–1,052); full-length or beta-propeller B domain deletion (ΔBPB: a.a. 396–705 deleted) constructs of His6–DDB1ΔBPB, StrepII–Avi–DDB1, or His6–Spy–DDB1; made in house; host or cells: Trichoplusia ni High Five insect cells (baculovirus)
Summary of the method: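 Read-out used a 70 μs delay to cut background fluorescence; TR-FRET signal taken as the 520 nm/490 nm emission ratio.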

[4] = biological target: T2, CDK2–cyclin A (Homo sapiens, UniProt P24941); experiment: Lanthascreen kinase binding assay, CDK2; conditions: for Lanthascreen signal, sheet CDK2: raw replicates, experiment r1-r11
T2 construct: purchased Thermo Fisher
Experimental: as §1

[5] = biological target: T3, CDK9–cyclin T (Homo sapiens, UniProt P50750); experiment: Lanthascreen kinase binding assay, CDK9; conditions: for Lanthascreen TR-FRET signal (raw ratio), sheet CDK9: first titration set (r1), duplicates
T3 construct: purchased Thermo Fisher
Experimental: as §1

[6] = tested on: HEK293T cells; experiment: Drug sensitivity assay (CellTiter-Glo viability) with or without MLN4924 pretreatment; assay type: cell-based, human; conditions: for EC50: Homo sapiens, HEK-293T; for Toxicity rescue: MLN4924-mediated cytotoxicity rescue, 10 µM used where n.d.
Summary of the method: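 HEK293T–Cas9 cells at 0.15 × 10^6 ml^−1 were treated with DMSO or 100 nM MLN4924 before plating. Test drugs were added 2 h later and exposure lasted 3 days. Viability was read by CellTiter-Glo luminescence and expressed relative to DMSO controls.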

[7] = source data sheet correlations, read-out: TR-FRET EC50
[8] = Lanthascreen, average, Extended Data Fig. 8, read-out: CDK2 IC50
[9] = Supplementary Table 2, read-out: Lanthascreen IC50 [nM] CDK2
[10] = Supplementary Table 2, read-out: Lanthascreen IC50 [nM] CDK9
[11] = Supplementary Table 2, HEK293T viability, 72 h, compound alone, read-out: Cellular assays EC50

T3 sequence (P50750 whole entry): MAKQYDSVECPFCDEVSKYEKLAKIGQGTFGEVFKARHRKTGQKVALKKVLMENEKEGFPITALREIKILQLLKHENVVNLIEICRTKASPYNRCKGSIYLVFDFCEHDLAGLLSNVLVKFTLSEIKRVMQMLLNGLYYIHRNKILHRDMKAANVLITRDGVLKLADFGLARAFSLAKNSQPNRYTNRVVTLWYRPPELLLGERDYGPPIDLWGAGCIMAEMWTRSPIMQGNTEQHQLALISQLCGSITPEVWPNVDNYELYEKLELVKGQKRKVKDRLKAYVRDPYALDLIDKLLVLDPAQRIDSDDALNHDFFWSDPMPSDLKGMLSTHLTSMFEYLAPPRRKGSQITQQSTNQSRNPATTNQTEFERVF
T3 sequence (O60563 whole entry partner): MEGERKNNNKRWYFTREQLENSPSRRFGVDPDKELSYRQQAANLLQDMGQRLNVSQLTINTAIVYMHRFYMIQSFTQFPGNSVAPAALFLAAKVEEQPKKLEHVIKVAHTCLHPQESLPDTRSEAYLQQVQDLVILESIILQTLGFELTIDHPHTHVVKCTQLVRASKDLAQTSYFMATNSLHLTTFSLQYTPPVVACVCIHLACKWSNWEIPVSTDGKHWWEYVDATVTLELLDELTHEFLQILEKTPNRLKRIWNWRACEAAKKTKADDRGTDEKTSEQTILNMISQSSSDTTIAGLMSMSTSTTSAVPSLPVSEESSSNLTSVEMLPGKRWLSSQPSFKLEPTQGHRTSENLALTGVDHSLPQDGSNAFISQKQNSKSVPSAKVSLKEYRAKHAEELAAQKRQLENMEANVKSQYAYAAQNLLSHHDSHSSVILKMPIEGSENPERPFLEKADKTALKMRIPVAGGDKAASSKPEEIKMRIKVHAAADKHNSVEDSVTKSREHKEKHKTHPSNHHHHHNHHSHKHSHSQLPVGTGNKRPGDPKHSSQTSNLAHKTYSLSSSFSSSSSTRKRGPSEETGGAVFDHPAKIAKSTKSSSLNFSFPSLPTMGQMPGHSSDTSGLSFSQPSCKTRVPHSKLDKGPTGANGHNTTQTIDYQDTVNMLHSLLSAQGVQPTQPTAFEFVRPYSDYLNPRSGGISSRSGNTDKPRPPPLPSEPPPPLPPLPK
Chain of CDK12–cyclin K (Q9NYV4 713-1052): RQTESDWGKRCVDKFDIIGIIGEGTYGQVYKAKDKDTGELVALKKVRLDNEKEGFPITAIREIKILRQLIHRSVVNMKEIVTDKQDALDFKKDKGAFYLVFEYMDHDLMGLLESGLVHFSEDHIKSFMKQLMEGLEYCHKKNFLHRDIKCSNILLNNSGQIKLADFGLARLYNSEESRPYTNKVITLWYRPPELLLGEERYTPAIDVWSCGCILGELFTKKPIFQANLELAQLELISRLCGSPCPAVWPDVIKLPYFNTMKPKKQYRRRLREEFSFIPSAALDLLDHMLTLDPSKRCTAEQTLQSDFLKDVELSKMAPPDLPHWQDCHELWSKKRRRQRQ
Chain of CDK12–cyclin K (O75909 1-267 partner limits assumed): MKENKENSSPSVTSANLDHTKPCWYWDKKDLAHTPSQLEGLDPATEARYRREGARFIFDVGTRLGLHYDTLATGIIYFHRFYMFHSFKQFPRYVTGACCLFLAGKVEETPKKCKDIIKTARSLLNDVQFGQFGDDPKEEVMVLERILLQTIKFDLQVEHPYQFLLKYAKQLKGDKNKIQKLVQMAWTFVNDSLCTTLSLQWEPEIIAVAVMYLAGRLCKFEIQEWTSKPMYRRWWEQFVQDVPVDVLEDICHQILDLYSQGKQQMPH
T1 sequence (Q9NYV4 713-1052 K965R): as the sequence (Q9NYV4 713-1052) above, with K253R counted along it
T1 sequence (O75909 1-267 partner): as the sequence (O75909 1-267 partner limits assumed) above
T1 sequence (Q16531 whole entry): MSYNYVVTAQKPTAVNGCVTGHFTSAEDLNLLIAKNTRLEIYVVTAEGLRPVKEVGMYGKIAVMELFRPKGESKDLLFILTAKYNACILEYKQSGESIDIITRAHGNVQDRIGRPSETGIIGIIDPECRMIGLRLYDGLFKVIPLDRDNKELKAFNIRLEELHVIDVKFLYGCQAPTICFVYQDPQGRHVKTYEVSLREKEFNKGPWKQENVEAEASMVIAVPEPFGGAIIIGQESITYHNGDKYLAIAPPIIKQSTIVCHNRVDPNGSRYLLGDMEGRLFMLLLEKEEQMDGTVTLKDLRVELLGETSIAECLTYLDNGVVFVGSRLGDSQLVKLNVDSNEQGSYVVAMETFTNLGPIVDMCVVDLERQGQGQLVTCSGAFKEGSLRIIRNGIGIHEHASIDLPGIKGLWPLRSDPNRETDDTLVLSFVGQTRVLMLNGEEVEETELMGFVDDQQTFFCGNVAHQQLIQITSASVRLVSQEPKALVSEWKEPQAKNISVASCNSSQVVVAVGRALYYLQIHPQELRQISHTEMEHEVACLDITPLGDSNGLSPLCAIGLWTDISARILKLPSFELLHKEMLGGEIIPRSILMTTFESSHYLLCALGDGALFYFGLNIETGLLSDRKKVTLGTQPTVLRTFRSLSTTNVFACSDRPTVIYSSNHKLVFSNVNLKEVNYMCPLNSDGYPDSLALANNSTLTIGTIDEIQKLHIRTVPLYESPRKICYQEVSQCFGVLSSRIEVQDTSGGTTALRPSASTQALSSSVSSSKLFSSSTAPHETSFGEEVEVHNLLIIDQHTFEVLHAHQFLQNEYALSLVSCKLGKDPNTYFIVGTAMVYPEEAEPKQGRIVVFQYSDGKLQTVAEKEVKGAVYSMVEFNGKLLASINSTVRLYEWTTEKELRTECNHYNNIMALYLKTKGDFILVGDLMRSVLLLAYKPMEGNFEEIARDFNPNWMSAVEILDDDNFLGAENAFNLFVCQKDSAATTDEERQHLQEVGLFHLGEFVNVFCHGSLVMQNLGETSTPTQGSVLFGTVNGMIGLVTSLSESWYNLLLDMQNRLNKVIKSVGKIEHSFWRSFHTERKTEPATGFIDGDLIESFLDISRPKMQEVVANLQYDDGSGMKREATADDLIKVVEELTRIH

COc1ccc(C)cc1N1C[C@@H](C(=O)Nc2nc3ccccc3[nH]2)CC1=O [Z11]
DC50 [1]: 0.436 µM
IC50 [2]: 3220 nM
Lanthascreen raw signal, sheet CDK12 ([2]; compound 1.02544 nM): 0.009169 and 0.008974
Lanthascreen raw signal, sheet CDK12 ([2]; compound 3.15521 nM): 0.009884 and 0.009801
Lanthascreen raw signal, sheet CDK12 ([2]; compound 9.46563 nM): 0.008091 and 0.0101
Lanthascreen raw signal, sheet CDK12 ([2]; compound 31.5521 nM): 0.00922 and 0.009965
Lanthascreen raw signal, sheet CDK12 ([2]; compound 99.3891 nM): 0.01122 and 0.009922
Lanthascreen raw signal, sheet CDK12 ([2]; compound 315.521 nM): 0.009639 and 0.01064
Lanthascreen raw signal, sheet CDK12 ([2]; compound 3155.21 nM): 0.00898 and 0.008785
Lanthascreen raw signal, sheet CDK12 ([2]; compound 10002 nM): 0.007994 and 0.007932
TR-FRET signal ([3]; compound concentration 3.6 nM): 0.4206 and 0.3705
TR-FRET signal ([3]; compound concentration 4.68 nM): 0.1751 and 0.204
TR-FRET signal ([3]; compound concentration 15.84 nM): 0.7002 and 0.5772
TR-FRET signal ([3]; compound concentration 21.6 nM): 0.3896 and 0.4045
TR-FRET signal ([3]; compound concentration 36 nM): 0.7669 and 0.7566
TR-FRET signal ([3]; compound concentration 62.6401 nM): 1.529 and 1.274
TR-FRET signal ([3]; compound concentration 79.2001 nM): 1.336 and 1.393
TR-FRET signal ([3]; compound concentration 158.4 nM): 1.979 and 2.065
TR-FRET signal ([3]; compound concentration 244.8 nM): 3.0134 and 2.769
TR-FRET signal ([3]; compound concentration 309.6 nM): 2.635 and 2.78
TR-FRET signal ([3]; compound concentration 626.401 nM): 3.319 and 3.352
TR-FRET signal ([3]; compound concentration 993.601 nM): 3.805 and 3.416
TR-FRET signal ([3]; compound concentration 1252.8 nM): 3.754 and 3.678
TR-FRET signal ([3]; compound concentration 2001.6 nM): 4.058 and 3.866
TR-FRET signal ([3]; compound concentration 2448 nM): 3.936 and 3.906
TR-FRET signal ([3]; compound concentration 9936.01 nM): 4.2719 and 4.125
TR-FRET signal ([3]; compound concentration 20016 nM): 4.262 and 4.289
EC50 ([3]; in vitro complex formation, 50 nM CDK12–cyclin K, 100 nM DDB1, text and figures, read-out: TR-FRET EC50): 0.178 ± 0.014 µM
EC50 ([3]; sheet MOESM7, read-out: log TR-FRET EC50 (converted)): 0.178 µM
EC50 [3, 7]: 0.178 µM
Lanthascreen signal, sheet CDK2 ([4]; Compound 1.02544 nM): 0.007579 and 0.009377
Lanthascreen signal, sheet CDK2 ([4]; Compound 3.15521 nM): 0.00995 and 0.009356
Lanthascreen signal, sheet CDK2 ([4]; Compound 9.46563 nM): 0.01093 and 0.01062
Lanthascreen signal, sheet CDK2 ([4]; Compound 31.5521 nM): 0.01004 and 0.01088
Lanthascreen signal, sheet CDK2 ([4]; Compound 99.3891 nM): 0.009456 and 0.01029
Lanthascreen signal, sheet CDK2 ([4]; Compound 315.521 nM): 0.0104 and 0.01024
Lanthascreen signal, sheet CDK2 ([4]; Compound 3155.21 nM): 0.01031 and 0.01162
Lanthascreen signal, sheet CDK2 ([4]; Compound 10002 nM): 0.01102 and 0.01013
IC50 [4, 8]: > 10000 nM
IC50 [4, 9]: > 10000 nM
IC50 ([5]; Lanthascreen, average, Extended Data Fig. 8, read-out: CDK9 IC50): > 10000 nM
IC50 [5, 10]: > 10000 nM
Lanthascreen TR-FRET signal (raw ratio), sheet CDK9 ([5]; compound 1.02544 nM): 0.0144 and 0.01353
Lanthascreen TR-FRET signal (raw ratio), sheet CDK9 ([5]; compound 3.15521 nM): 0.01322 and 0.01379
Lanthascreen TR-FRET signal (raw ratio), sheet CDK9 ([5]; compound 9.46563 nM): 0.01482 and 0.01443
Lanthascreen TR-FRET signal (raw ratio), sheet CDK9 ([5]; compound 31.5521 nM): 0.01456 and 0.01497
Lanthascreen TR-FRET signal (raw ratio), sheet CDK9 ([5]; compound 99.3891 nM): 0.0144 and 0.01356
Lanthascreen TR-FRET signal (raw ratio), sheet CDK9 ([5]; compound 315.521 nM): 0.01557 and 0.0126
Lanthascreen TR-FRET signal (raw ratio), sheet CDK9 ([5]; compound 3155.21 nM): 0.01348 and 0.01509
Lanthascreen TR-FRET signal (raw ratio), sheet CDK9 ([5]; compound 10002 nM): 0.008815 and 0.01082
EC50 ([6]; Supplementary Fig. 5, HEK293T, CellTiter Glo, 72h, pre-treatment with 100 nM MLN4924, read-out: Viability EC50, with MLN4924): 1290 µM
EC50 [6, 11]: 1.07 µM
Toxicity rescue ([6]; Supplementary Table 2): 838%

COc1cc2nc(CN3CCc4sccc4C3)[nH]c(=O)c2cc1OC [Z12]
DC50 [1]: 3.49 µM
IC50 [2]: 1940 nM
Lanthascreen raw signal, sheet CDK12 ([2]; compound 1.02544 nM): 0.008768 and 0.008409
Lanthascreen raw signal, sheet CDK12 ([2]; compound 3.15521 nM): 0.009734 and 0.0102
Lanthascreen raw signal, sheet CDK12 ([2]; compound 9.46563 nM): 0.009031 and 0.008491
Lanthascreen raw signal, sheet CDK12 ([2]; compound 31.5521 nM): 0.008872 and 0.01072
Lanthascreen raw signal, sheet CDK12 ([2]; compound 99.3891 nM): 0.01101 and 0.009378
Lanthascreen raw signal, sheet CDK12 ([2]; compound 315.521 nM): 0.008266 and 0.00879
Lanthascreen raw signal, sheet CDK12 ([2]; compound 3155.21 nM): 0.006586 and 0.00831
Lanthascreen raw signal, sheet CDK12 ([2]; compound 10002 nM): 0.00787 and 0.005759
EC50 [3, 7]: 0.833 µM
Lanthascreen signal, sheet CDK2 ([4]; Compound 1.02544 nM): 0.01113 and 0.009882
Lanthascreen signal, sheet CDK2 ([4]; Compound 3.15521 nM): 0.009971 and 0.01033
Lanthascreen signal, sheet CDK2 ([4]; Compound 9.46563 nM): 0.01229 and 0.009342
Lanthascreen signal, sheet CDK2 ([4]; Compound 31.5521 nM): 0.009577 and 0.009489
Lanthascreen signal, sheet CDK2 ([4]; Compound 99.3891 nM): 0.0109 and 0.009513
Lanthascreen signal, sheet CDK2 ([4]; Compound 315.521 nM): 0.01017 and 0.01118
Lanthascreen signal, sheet CDK2 ([4]; Compound 3155.21 nM): 0.009276 and 0.007116
Lanthascreen signal, sheet CDK2 ([4]; Compound 10002 nM): 0.008712 and 0.007113
IC50 [4, 8]: > 10000 nM
IC50 [4, 9]: > 10000 nM
IC50 [5, 10]: 2230 nM
Lanthascreen TR-FRET signal (raw ratio), sheet CDK9 ([5]; compound 1.02544 nM): 0.01363 and 0.01444
Lanthascreen TR-FRET signal (raw ratio), sheet CDK9 ([5]; compound 3.15521 nM): 0.01374 and 0.01202
Lanthascreen TR-FRET signal (raw ratio), sheet CDK9 ([5]; compound 9.46563 nM): 0.01193 and 0.01374
Lanthascreen TR-FRET signal (raw ratio), sheet CDK9 ([5]; compound 31.5521 nM): 0.01293 and 0.01321
Lanthascreen TR-FRET signal (raw ratio), sheet CDK9 ([5]; compound 99.3891 nM): 0.01614 and 0.01565
Lanthascreen TR-FRET signal (raw ratio), sheet CDK9 ([5]; compound 315.521 nM): 0.01216 and 0.01193
Lanthascreen TR-FRET signal (raw ratio), sheet CDK9 ([5]; compound 3155.21 nM): 0.009114 and 0.00834
Lanthascreen TR-FRET signal (raw ratio), sheet CDK9 ([5]; compound 10002 nM): 0.005656 and 0.005947
EC50 [6, 11]: 1.37 µM
Toxicity rescue ([6]; Supplementary Table 2): 49%
